Measured values reported in PubChem BioAssay AID328 (DTP/NCI, 2004).
“And” between values parts separate entries of the source, which are not always exact repeats. Equal entries are not always repeated. Toxic doses and inconclusive results are not listed. How the source made its calls: active means survival T/C of 150% or more; inactive means T/C below 125% in these data.

Tested on: BDF1 mice, P388 leukemia ip, median survival T/C
Test: NCI In Vivo Anticancer Drug Screen. Data for tumor model P388 Leukemia (intraperitoneal) in B6D2F1 (BDF1) mice
Settings: endpoint: median survival time, higher = longer survival
Method in brief: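 Each value expresses how treatment altered survival: treated-mouse outcome over vehicle-mouse outcome, both groups bearing the transplanted tumour.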

[1] = dose: 12.5 mg/kg/injection, schedule: Q01DX009 (ip), vehicle: Klucel (hydroxypropylcellulose) (HPC)
[2] = dose: 100.0 mg/kg/injection, schedule: Q04DX003 (ip), vehicle: Klucel (hydroxypropylcellulose) (HPC)
[3] = dose: 50.0 mg/kg/injection, schedule: Q04DX003 (ip), vehicle: saline
[4] = dose: 100.0 mg/kg/injection, schedule: Q04DX003 (ip), vehicle: saline
[5] = dose: 200.0 mg/kg/injection, schedule: Q04DX003 (ip), vehicle: saline

Measured: T/C

C=C1C(C2(C)C(OC(C)=O)CC(=O)OC(C)(COC(C)=O)C2CC(=O)OC)C(OC=O)C(OC(=O)C(O)C(C)CC)C2(C)C(c3ccoc3)CC(=O)C12O (centres undefined)
inactive: dose: 3.75 mg/kg/injection, schedule: Q01DX009 (ip), vehicle: Klucel (hydroxypropylcellulose) (HPC) 94 % of control | dose: 7.5 mg/kg/injection, schedule: Q01DX009 (ip), vehicle: Klucel (hydroxypropylcellulose) (HPC) 93 % of control

Brc1cc(Br)c(I)c(Br)c1
inactive: dose: 100.0 mg/kg/injection, schedule: Q01DX009 (ip), vehicle: other 105 % of control | dose: 200.0 mg/kg/injection, schedule: Q01DX009 (ip), vehicle: other 100 % of control | dose: 400.0 mg/kg/injection, schedule: Q01DX009 (ip), vehicle: other 90 % of control

CCn1cnc2c(=S)nc(N)[nH]c21
inactive: dose: 3.12 mg/kg/injection, schedule: Q01DX009 (ip), vehicle: Klucel (hydroxypropylcellulose) (HPC) 100 % of control | dose: 6.25 mg/kg/injection, schedule: Q01DX009 (ip), vehicle: Klucel (hydroxypropylcellulose) (HPC) 118 % of control | [1] 90 % of control | dose: 25.0 mg/kg/injection, schedule: Q04DX003 (ip), vehicle: Klucel (hydroxypropylcellulose) (HPC) 100 % of control | dose: 50.0 mg/kg/injection, schedule: Q04DX003 (ip), vehicle: Klucel (hydroxypropylcellulose) (HPC) 100 % of control | [2] 104 % of control

Nc1nc(=O)n(C2OC(CO)C(O)C2O)c2nc(I)[nH]c12 (centres undefined)
inactive: dose: 12.5 mg/kg/injection, schedule: Q04DX003 (ip), vehicle: saline 97 % of control | dose: 25.0 mg/kg/injection, schedule: Q04DX003 (ip), vehicle: saline 97 % of control | [3] 105 % of control | [4] 108 % of control | [5] 111 % of control

C=CCCC/C(C)=N/NS(=O)(=O)c1ccc(C)cc1
inactive: dose: 50.0 mg/kg/injection, schedule: Q01DX009 (ip), vehicle: saline with Tween-80 109 % of control | dose: 100.0 mg/kg/injection, schedule: Q01DX009 (ip), vehicle: saline with Tween-80 109 % of control | dose: 200.0 mg/kg/injection, schedule: Q01DX009 (ip), vehicle: saline with Tween-80 95 % of control

C[C@]12C=CC(=O)C=C1CC[C@@H]1[C@@H]2C(=O)C[C@@]2(C)[C@H]1CC[C@]2(O)C(=O)CO
inactive: dose: 0.8 mg/kg/injection, schedule: Q01DX009 (ip), vehicle: carboxymethylcellulose (CMC) 90 % of control | dose: 1.6 mg/kg/injection, schedule: Q01DX009 (ip), vehicle: carboxymethylcellulose (CMC) 99 % of control | dose: 3.12 mg/kg/injection, schedule: Q01DX009 (ip), vehicle: carboxymethylcellulose (CMC) 99 % of control | dose: 6.25 mg/kg/injection, schedule: Q01DX009 (ip), vehicle: carboxymethylcellulose (CMC) 89 % of control and 103 % of control | dose: 6.25 mg/kg/injection, schedule: Q03HX008 (ip), vehicle: saline 107 % of control | dose: 6.25 mg/kg/injection, schedule: Q03HX016 (ip), vehicle: saline 100 % of control | dose: 6.25 mg/kg/injection, schedule: Q03HX024 (ip), vehicle: saline 100 % of control | dose: 12.5 mg/kg/injection, schedule: Q01DX009 (ip), vehicle: carboxymethylcellulose (CMC) 87 % of control and 89 % of control | dose: 12.5 mg/kg/injection, schedule: Q03HX008 (ip), vehicle: saline 100 % of control | dose: 12.5 mg/kg/injection, schedule: Q03HX016 (ip), vehicle: saline 100 % of control | dose: 12.5 mg/kg/injection, schedule: Q03HX024 (ip), vehicle: saline 87 % of control | dose: 25.0 mg/kg/injection, schedule: Q03HX008 (ip), vehicle: saline 100 % of control | dose: 25.0 mg/kg/injection, schedule: Q03HX016 (ip), vehicle: saline 100 % of control | dose: 25.0 mg/kg/injection, schedule: Q03HX024 (ip), vehicle: saline 87 % of control | dose: 44.0 mg/kg/injection, schedule: Q04DX003 (sc), vehicle: Klucel (hydroxypropylcellulose) (HPC) 113 % of control | dose: 50.0 mg/kg/injection, schedule: Q01DX001 (ip), vehicle: saline 107 % of control | dose: 50.0 mg/kg/injection, schedule: Q01DX009 (ip), vehicle: carboxymethylcellulose (CMC) 90 % of control and 93 % of control | dose: 50.0 mg/kg/injection, schedule: Q03HX008 (ip), vehicle: saline 100 % of control | dose: 50.0 mg/kg/injection, schedule: Q03HX016 (ip), vehicle: saline 107 % of control | dose: 50.0 mg/kg/injection, schedule: Q03HX024 (ip), vehicle: saline 87 % of control | [3] 93 % of control | dose: 50.0 mg/kg/injection, schedule: Q08DX002 (ip), vehicle: saline 87 % of control | dose: 67.0 mg/kg/injection, schedule: Q04DX003 (sc), vehicle: Klucel (hydroxypropylcellulose) (HPC) 114 % of control | dose: 100.0 mg/kg/injection, schedule: Q01DX001 (ip), vehicle: saline 114 % of control | dose: 100.0 mg/kg/injection, schedule: Q03HX008 (ip), vehicle: saline 100 % of control | dose: 100.0 mg/kg/injection, schedule: Q03HX016 (ip), vehicle: saline 114 % of control | dose: 100.0 mg/kg/injection, schedule: Q03HX024 (ip), vehicle: saline 87 % of control | [4] 106 % of control | dose: 100.0 mg/kg/injection, schedule: Q04DX003 (sc), vehicle: Klucel (hydroxypropylcellulose) (HPC) 113 % of control | dose: 100.0 mg/kg/injection, schedule: Q08DX002 (ip), vehicle: saline 87 % of control | dose: 200.0 mg/kg/injection, schedule: Q01DX001 (ip), vehicle: saline 114 % of control | [5] 100 % of control | dose: 200.0 mg/kg/injection, schedule: Q08DX002 (ip), vehicle: saline 100 % of control | dose: 400.0 mg/kg/injection, schedule: Q01DX001 (ip), vehicle: saline 121 % of control | dose: 400.0 mg/kg/injection, schedule: Q04DX003 (ip), vehicle: saline 106 % of control | dose: 400.0 mg/kg/injection, schedule: Q08DX002 (ip), vehicle: saline 87 % of control | dose: 800.0 mg/kg/injection, schedule: Q01DX001 (ip), vehicle: saline 121 % of control | dose: 800.0 mg/kg/injection, schedule: Q04DX003 (ip), vehicle: saline 106 % of control | dose: 800.0 mg/kg/injection, schedule: Q08DX002 (ip), vehicle: saline 100 % of control

N#CC(C#N)=Cc1ccc(C=C(C#N)C#N)cc1
inactive: [1] 100 % of control | dose: 25.0 mg/kg/injection, schedule: Q01DX009 (ip), vehicle: Klucel (hydroxypropylcellulose) (HPC) 95 % of control | dose: 50.0 mg/kg/injection, schedule: Q01DX009 (ip), vehicle: Klucel (hydroxypropylcellulose) (HPC) 90 % of control | [2] 100 % of control | dose: 200.0 mg/kg/injection, schedule: Q04DX003 (ip), vehicle: Klucel (hydroxypropylcellulose) (HPC) 104 % of control | dose: 400.0 mg/kg/injection, schedule: Q04DX003 (ip), vehicle: Klucel (hydroxypropylcellulose) (HPC) 121 % of control
